Test results as given in ChEMBL document CHEMBL1147055, “Noxious compounds activate TRPA1 ion channels through covalent modification of cysteines” (Nature, 2007).
The source made the active and inactive calls. No cut-off for these calls is given here.

Legend:
[1] = target: Transient receptor potential cation channel subfamily A member 1 (Homo sapiens, UniProt O75762); test: Activation of TRPA1
[2] = target: Transient receptor potential cation channel subfamily A member 1 (Mus musculus) (UniProt Q8BLA8); test: Binding affinity to mouse TRPA1 expressed in HEK293T cells at 100 uM assessed as covalent protein modification; format: cell-based; conditions: HEK-293T
Sequence of Transient receptor potential cation channel subfamily A member 1 (Mus musculus) (Q8BLA8 whole entry): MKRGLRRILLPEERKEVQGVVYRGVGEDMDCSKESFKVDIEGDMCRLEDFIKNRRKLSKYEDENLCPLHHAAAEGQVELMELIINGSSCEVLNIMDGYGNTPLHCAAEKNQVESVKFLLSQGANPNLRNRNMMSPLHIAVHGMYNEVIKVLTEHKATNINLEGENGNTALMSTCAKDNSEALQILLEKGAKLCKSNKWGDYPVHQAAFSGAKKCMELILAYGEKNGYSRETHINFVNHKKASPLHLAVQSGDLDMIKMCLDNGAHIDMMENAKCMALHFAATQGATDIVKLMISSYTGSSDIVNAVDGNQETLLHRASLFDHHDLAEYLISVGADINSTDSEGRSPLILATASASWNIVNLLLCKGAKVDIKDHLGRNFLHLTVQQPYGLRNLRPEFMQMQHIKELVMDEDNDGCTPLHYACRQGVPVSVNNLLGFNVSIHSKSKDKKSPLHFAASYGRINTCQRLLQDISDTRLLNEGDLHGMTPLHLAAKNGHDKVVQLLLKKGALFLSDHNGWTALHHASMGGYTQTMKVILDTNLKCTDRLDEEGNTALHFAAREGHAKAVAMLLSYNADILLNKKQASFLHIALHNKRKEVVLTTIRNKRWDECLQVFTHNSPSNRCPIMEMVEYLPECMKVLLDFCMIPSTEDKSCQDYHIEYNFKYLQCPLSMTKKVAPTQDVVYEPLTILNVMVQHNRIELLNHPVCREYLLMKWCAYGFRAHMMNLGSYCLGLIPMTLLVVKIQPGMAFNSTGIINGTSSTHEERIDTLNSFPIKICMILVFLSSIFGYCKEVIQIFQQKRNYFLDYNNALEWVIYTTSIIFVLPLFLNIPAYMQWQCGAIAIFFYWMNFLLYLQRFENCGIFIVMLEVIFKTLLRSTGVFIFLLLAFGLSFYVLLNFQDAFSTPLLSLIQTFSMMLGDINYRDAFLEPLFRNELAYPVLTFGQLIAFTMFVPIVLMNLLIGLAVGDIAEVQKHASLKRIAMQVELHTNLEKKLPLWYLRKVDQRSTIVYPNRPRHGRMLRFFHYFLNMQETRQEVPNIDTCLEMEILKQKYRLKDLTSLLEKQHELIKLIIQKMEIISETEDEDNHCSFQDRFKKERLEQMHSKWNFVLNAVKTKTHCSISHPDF

[3] = target: Transient receptor potential cation channel subfamily A member 1 (Mus musculus) (UniProt Q8BLA8); test: Activation of mouse TRPA1 expressed in CHO cells at 100 uM by calcium imaging FLIPR assay; format: cell-based
[4] = target: Transient receptor potential cation channel subfamily A member 1 (Mus musculus) (UniProt Q8BLA8); test: Activation of mouse TRPA1 expressed in CHO cells assessed as increase in intracellular calcium level; format: cell-based
[5] = target: Transient receptor potential cation channel subfamily A member 1 (Mus musculus) (UniProt Q8BLA8); test: Activation of mouse TRPA1 expressed in HEK293T cells at 50 uM in presence of dithiothreitol by electrophysiology; format: cell-based; conditions: HEK-293T
[6] = target: Transient receptor potential cation channel subfamily A member 1 (Mus musculus) (UniProt Q8BLA8); test: Activation of mouse TRPA1 expressed in HEK293T cells at 50 uM assessed as activation of cation conductance by electrophysiology; format: cell-based; conditions: HEK-293T
[7] = system: Transient receptor potential cation channel subfamily A member 1 (Mus musculus), Q8BLA8 [C622S]; test: Activation of mouse TRPA1 C622S mutant expressed in CHO cells at 100 uM by calcium imaging FLIPR assay; format: cell-based
Sequence of Transient receptor potential cation channel subfamily A member 1 (Mus musculus), Q8BLA8 [C622S] (Q8BLA8 whole entry C622S): as the sequence (Q8BLA8 whole entry) above, with C622S counted along it

[8] = system: Transient receptor potential cation channel subfamily A member 1 (Mus musculus), Q8BLA8 [C422S]; test: Activation of mouse TRPA1 C422S mutant expressed in CHO cells at 100 uM by calcium imaging FLIPR assay; format: cell-based
Sequence of Transient receptor potential cation channel subfamily A member 1 (Mus musculus), Q8BLA8 [C422S] (Q8BLA8 whole entry C422S): as the sequence (Q8BLA8 whole entry) above, with C422S counted along it

[9] = system: Transient receptor potential cation channel subfamily A member 1 (Mus musculus), Q8BLA8 [C415S]; test: Activation of mouse TRPA1 C415S mutant expressed in CHO cells at 100 uM by calcium imaging FLIPR assay; format: cell-based
Sequence of Transient receptor potential cation channel subfamily A member 1 (Mus musculus), Q8BLA8 [C415S] (Q8BLA8 whole entry C415S): as the sequence (Q8BLA8 whole entry) above, with C415S counted along it

[10] = target: Transient receptor potential cation channel subfamily A member 1 (Mus musculus) (UniProt Q8BLA8); test: Activation of mouse TRPA1 expressed in HEK293T cells at 100 uM assessed as activation of cation conductance by electrophysiology; format: cell-based; conditions: HEK-293T
[11] = target: Transient receptor potential cation channel subfamily A member 1 (Mus musculus) (UniProt Q8BLA8); test: Reversal of activation of mouse TRPA1 expressed in HEK293T cells at 400 uM in presence of dithiothreitol by electrophysiology; format: cell-based; conditions: HEK-293T
[12] = target: Transient receptor potential cation channel subfamily A member 1 (Mus musculus) (UniProt Q8BLA8); test: Activation of mouse TRPA1 expressed in HEK293T cells at 30 uM assessed as activation of cation conductance by electrophysiology; format: cell-based; conditions: HEK-293T

Sequence of Transient receptor potential cation channel subfamily A member 1 (O75762 whole entry): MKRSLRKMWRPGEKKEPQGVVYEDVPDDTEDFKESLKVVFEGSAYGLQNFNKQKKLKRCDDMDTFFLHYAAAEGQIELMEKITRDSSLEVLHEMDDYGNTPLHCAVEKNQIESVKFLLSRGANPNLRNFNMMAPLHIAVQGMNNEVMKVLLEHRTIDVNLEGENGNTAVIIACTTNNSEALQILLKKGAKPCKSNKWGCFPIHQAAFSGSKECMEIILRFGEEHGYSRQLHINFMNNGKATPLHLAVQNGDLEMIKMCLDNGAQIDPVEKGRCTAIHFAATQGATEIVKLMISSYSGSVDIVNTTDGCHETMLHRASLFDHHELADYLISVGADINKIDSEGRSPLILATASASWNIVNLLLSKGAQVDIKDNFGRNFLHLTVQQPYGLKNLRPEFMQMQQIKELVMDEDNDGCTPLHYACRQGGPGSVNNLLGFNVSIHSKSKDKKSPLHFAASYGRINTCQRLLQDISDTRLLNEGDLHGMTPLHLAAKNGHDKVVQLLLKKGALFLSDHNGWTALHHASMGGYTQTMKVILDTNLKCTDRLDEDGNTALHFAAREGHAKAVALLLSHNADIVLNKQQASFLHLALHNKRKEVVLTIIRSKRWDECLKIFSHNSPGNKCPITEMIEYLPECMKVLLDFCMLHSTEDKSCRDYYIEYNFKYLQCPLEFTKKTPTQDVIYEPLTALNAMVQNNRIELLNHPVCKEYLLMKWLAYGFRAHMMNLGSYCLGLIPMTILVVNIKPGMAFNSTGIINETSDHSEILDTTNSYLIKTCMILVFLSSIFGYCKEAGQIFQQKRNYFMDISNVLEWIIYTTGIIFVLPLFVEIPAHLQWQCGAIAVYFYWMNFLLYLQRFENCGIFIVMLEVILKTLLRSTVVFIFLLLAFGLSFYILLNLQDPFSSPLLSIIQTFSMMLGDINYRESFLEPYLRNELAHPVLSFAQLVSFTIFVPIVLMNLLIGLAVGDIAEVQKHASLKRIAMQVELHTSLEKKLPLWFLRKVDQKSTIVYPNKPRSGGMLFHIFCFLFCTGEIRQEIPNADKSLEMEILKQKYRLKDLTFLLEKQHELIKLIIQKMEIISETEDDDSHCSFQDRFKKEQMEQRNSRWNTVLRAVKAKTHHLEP

With `C#CCN1C(=O)/C(=C/C(C)=O)c2ccccc21` the EC50 [1] was 0.1 µM and the Activity [2] was “Active”.
For `CC(=O)CC1(O)C(=O)N(C)c2ccccc21` (stereo not drawn), the Activity [1] was “inactive”.
`C#CCN=C=S` [PROPARGYL ISOTHIOCYANATE] was tested, and the EC50 [1] was 18.4 µM and the Activity [2] was “Active”.
In the case of `OC/C=C/c1ccccc1`, the Activity [1] is reported as “inactive”.
With `C=CC=O` [ACROLEIN] the EC50 [1] was 5 µM.
In the case of `CC/C=C/C=O` [PENTENAL], the EC50 [1] is reported as 5 µM.
`O=C1CCC(=O)N1O` was tested, and the Activity [3] was “inactive”.
For `C#CCCCCNC(=O)CI` [IODOACETAMIDE ALKYNE], the EC50 [1] was 134 µM and the Activity [2] was “Active”.
In the case of `CC(=O)/C=C1/C(=O)N(C)c2ccccc21`, the EC50 [1] is reported as 0.8 µM, the Activity [4] is reported as “Active” and the Activity [5] is reported as “Active”. For the same compound, the Activity [6] was “Active”.
With `NC(=O)CI` [IODOACETAMIDE] the EC50 [1] was 357 µM and the Activity [4] was “Active”.
In the case of `O=C/C=C/c1ccccc1`, the EC50 [1] is reported as 19 µM, the Activity [7] is reported as “inactive” and the Activity [8] is reported as “inactive”. The Activity [9] was “inactive”.
For `O=C1NC(c2cccc([N+](=O)[O-])c2)=CCN1c1ccccc1O`, the Activity [10] was “Active”.
For `CS(=O)(=O)SCCN`, the EC50 [1] was 1.58 µM, the Activity [4] was “Active” and the Activity [11] was “Active”.
For `CCC=O`, the Activity [1] was “inactive”.
`C=CCN=C=S` was tested, and the Activity [4] was “Active” and the Activity [12] was “Active”.
